{"source": "patent US20170119742A1", "about": "“MEDICAMENT FOR PREVENTING AND/OR TREATING STRESS DISEASES” (ONO PHARMACEUTICAL CO., LTD., priority 2014, published 2017)", "key": {"[1]": {"tested_on": "Wistar rats exposed to physical and mental stressors", "test": "Antistress effect: stool weight excreted during restraint stressor load in rats", "format": "in vivo", "settings": "rat; for average stool wet weight: 2 h before 1 h restraint stressor, vehicle 1.79 g, normal 0.04 g", "procedure": "Male Sic: Wistar rats (Japan SLC, Inc., at the time of use: 11 weeks old) was exposed to physical and mental stressors (Journal of Pharmacological Science, Vol. 104, p. 263-273, 2007). The vehicle (0.5 w/v % methylcellulose 400 cP solution) or the compound of the present invention (0.1, 0.3, 1 and 3 mg/kg) was orally administered. Two hours after the administration, the stressor load was started by putting the rat in a restraint stress cage (Natsume Seisakusho Co., Ltd.). The antistress effect was evaluated by measuring the stool weight which was excreted during the stressor load of 1 hour (n=12 in each group)."}, "[2]": {"tested_on": "brain TSPO", "test": "Ex vivo brain TSPO occupancy in monkeys, [3H] PBR28", "settings": "rhesus monkey, once on day 4, 2 h after final dose", "procedure": "The vehicle (0.5 w/v % methylcellulose 400 cP solution) or the compound of the present invention (0.4 or 1 mg/kg) was orally administered twice daily for 3 days, once on day 4 to male rhesus monkeys (Shin Nippon Biomedical Laboratories, Ltd., at the time of use: 4 to 6 kg). After 2 hours of the final administration, in the same manner as Biological example 1, brain TSPO occupancy of the compound of the present invention relative to the specific binding of the vehicle control group was measured by measuring the specific binding amount of [3H] PBR28 on brain (anterior cingulate cortex, caudate nucleus, amygdala, hippocampus and occipital lobe) homogenates (n=3 in vehicle control group, n=5 in each the compound of the present invention treated group). As a result, the average TSPO occupancy of brain 5 sites was 37.9 and 56.6% in 0.4 and 1 mg/kg group of the compound of the present invention. The average plasma concentration of the compound of the present invention was 23.9 and 154 ng/mL in 0.4 and 1 mg/kg group."}, "[3]": {"biological_target": "T1, brain TSPO (Homo sapiens, UniProt P30536)", "T1 construct": "from tissue; host or cells: living human brain (PET, healthy adults)", "T1 sequence (P30536 whole entry)": "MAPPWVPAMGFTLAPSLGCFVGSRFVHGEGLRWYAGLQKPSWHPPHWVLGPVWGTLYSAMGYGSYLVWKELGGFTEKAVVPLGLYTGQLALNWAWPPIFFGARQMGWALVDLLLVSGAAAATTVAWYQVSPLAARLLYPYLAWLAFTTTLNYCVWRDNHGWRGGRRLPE", "test": "Brain occupancy using PET in humans (1), [11C] PBR28, Emax model", "format": "in vivo", "procedure": "Male and female healthy adults were used. The compound of the present invention (6 to 200 mg) was once orally administered. Before and after 24 hours of the administration, a PET measurement using [^11C] PBR28 was performed in the following manner.\nMeasurement equipment: PET; ECAT HR+(Siemens) Measurement methods: 90 minutes blank measurement and 10 to 15 minutes transmission measurement were performed using 68Ge/68Ga calibration source. Next, [^11C] PBR28 was intravenously bolus administrated over a period of about 30 seconds. Emission measurement (total 90 minutes, 26 frames) was started together with the administration while an arterial blood sampling for measuring the plasma concentration.\nBrain occupancy, relative to the binding potential (BP) before the administration, was calculated by calculating the BP of each interest area from the brain radioactivity concentration time change of [^11C] PBR28, nonspecific binding amount and arterial blood plasma radioactivity which was corrected in a non-metabolic rate (n=3 to 4 in each group). Further, the average TSPO occupancy of all interest areas was determined from the Lassen plot that obtained by the horizontal axis of the distribution volume before administration and the vertical axis of the value obtained by subtracting the distribution volume after administration from the distribution volume before the administration for each interest area. […] As parameters in this model, Emax (a maximal effect) and EC50 (ng/mL) (a blood concentration which can be achieved 50% Emax) were used. An analysis software NONMEM7.1.2 (ICON Development Solutions) was used in this analysis. Parameters and formula of Emax model were shown in the following.\nTSPO Occupancy (%)=(θ1×X)/(θ2+X)\nX=Plasma concentration (ng/mL)"}, "[4]": {"tested_on": "female diarrhea-type IBS patients", "test": "Efficacy trial in humans 1: double-blind parallel-group study in IBS", "format": "in vivo, human", "settings": "for Daily responder (%), Abdominal Pain and Stool Consistency: placebo 6.5; for Daily responder (%), Stool Consistency: placebo 10.9; for Weekly responder (%), Abdominal Pain and Stool Consistency: placebo 21.7; for Weekly responder (%), Stool Consistency: placebo 28.3; for Daily responder (%), Abdominal Pain: placebo 37; for Weekly responder (%), Abdominal Pain: placebo 39.1; for increase in the number of days per week with no abdominal pain: 4th week of treatment period, placebo 0.61", "procedure": "As a clinical trail, a double-bind, parallel-group study was conducted under the following conditions in female diarrhea-type IBS patients.\nPURPOSE: Confirmation of efficacy against clinical symptoms of IBS METHODS: This study was conducted at 49 centers in the United States and recruited 200 patients (aged 18-65 years) with female diarrhea-type IBS patients according to Rome III criteria (Gastroenterology, Vol. 130, p. 1480-1491, 2006). Patients were randomly assigned to any of the following three treatment groups (1:1:1 ratio) and received orally administration once-daily for 4 weeks. Patients recorded their IBS symptoms on a daily basis in an e-diary during a 2-week pre-treatment, the 4-week treatment period and for 4 weeks post-treatment. Safety monitoring was performed throughout the study. The primary endpoints were change from baseline (pre-treatment period) to week 4 in stool consistency (Bristol Stool Scale; BSS), stool frequency and abdominal pain (Numerical Rating Scale; NRS). Secondary endpoints included FDA responder analyses (Guidance for Industry Irritable Bowel Syndrome—Clinical Evaluation of Drugs for Treatment).\n(1) Placebo group (2) The compound of the present invention (20 mg treatment) group (3) The compound of the present invention (60 mg treatment) group ENDPOINTS: IBS symptoms (abdominal pain, stool consistency, stool frequency, faecal urgency and severity), QOL, psychological symptoms, safety, pharmacokinetics and biomarker RESULTS: Baseline value of patient layer and each of the parameters (stool consistency, stool frequency and abdominal pain) were similar in each treatment group. […] Further, a greater percentage of patients met responder criteria among patients in 60 mg treatment group of the compound of the present invention compared to placebo treatment group (Table 3, FIG. 10 and FIG. 11). On the other hand, the increase in the number of days per week with no abdominal pain at the 4th week of treatment period were 0.61 in placebo treatment group, 1.16 in 20 mg treatment group and 1.51 in 60 mg treatment group.\nThe weekly responder of abdominal pain and stool consistency was defined as a patient who met the both criteria of the above-mentioned abdominal pain score and stool consistency."}, "[5]": {"settings": "20 mg oral once daily 4 weeks, n = 41"}, "[6]": {"settings": "60 mg oral once daily 4 weeks, n = 45"}}, "data": [{"smiles": "COc1cc(Cl)ccc1[C@H]1c2[nH]c3cccc(F)c3c2C2(CC2)CN1C(C)=O", "note": "[the compound of the present invention, (1S)-2-acetyl-1-(4-chloro-2-methoxyphenyl)-5-fluoro-1,2,3,9-tetrahydrospiro[β-carboline-4,1′-cyclopropane]]", "values": [{"measurement": "average stool wet weight", "setting": "[1]; 0.1 mg/kg oral", "value": 1.48, "unit": "g"}, {"measurement": "average stool wet weight", "setting": "[1]; 0.3 mg/kg oral", "value": 0.96, "unit": "g"}, {"measurement": "average stool wet weight", "setting": "[1]; 1 mg/kg oral", "value": 0.60, "unit": "g"}, {"measurement": "average stool wet weight", "setting": "[1]; 3 mg/kg oral", "value": 0.67, "unit": "g"}, {"measurement": "effect on stool wet weight compared to the vehicle treated group", "setting": "[1]; dose of 0.3, 1 and 3 mg/kg oral", "value": "significantly inhibit the stool wet weight"}, {"measurement": "average TSPO occupancy of brain 5 sites", "setting": "[2]; 0.4 mg/kg oral twice daily 3 days", "value": 37.9, "unit": "%"}, {"measurement": "average TSPO occupancy of brain 5 sites", "setting": "[2]; 1 mg/kg oral twice daily 3 days", "value": 56.6, "unit": "%"}, {"measurement": "plasma concentration that makes brain TSPO occupancy reach about 50%", "setting": "[3]; Emax model", "value": "about 15 ng/mL"}, {"measurement": "plasma concentration that makes brain TSPO occupancy reach about 85%", "setting": "[3]; Emax model", "value": "about 150 ng/mL"}, {"measurement": "θ1 (=Emax), maximal effect of Emax model of TSPO occupancy", "setting": "[3]; [11C] PBR28, 6 to 200 mg single oral dose, NONMEM, in % (unit assumed)", "value": "92.8±3.59"}, {"measurement": "EC50", "setting": "[3]; [11C] PBR28, 6 to 200 mg single oral dose, NONMEM, read-out: θ2 (=EC50), blood concentration which can be achieved 50% Emax (converted)", "value": 34.3, "unit": "nM"}, {"measurement": "tolerability and safety profile", "setting": "[4]; 20 mg or 60 mg oral once daily for 4 weeks", "value": "well-tolerated and had a favourable safety profile"}, {"measurement": "Daily responder (%), Abdominal Pain and Stool Consistency", "setting": "[4]; [5]", "value": 14.6, "unit": "%"}, {"measurement": "Daily responder (%), Stool Consistency", "setting": "[4]; [5]", "value": 17.1, "unit": "%"}, {"measurement": "Weekly responder (%), Abdominal Pain and Stool Consistency", "setting": "[4]; [5]", "value": 22, "unit": "%"}, {"measurement": "Weekly responder (%), Stool Consistency", "setting": "[4]; [5]", "value": 41.5, "unit": "%"}, {"measurement": "Daily responder (%), Abdominal Pain", "setting": "[4]; [5]", "value": 36.6, "unit": "%"}, {"measurement": "Weekly responder (%), Abdominal Pain", "setting": "[4]; [5]", "value": 39, "unit": "%"}, {"measurement": "Daily responder (%), Abdominal Pain and Stool Consistency", "setting": "[4]; [6]", "value": 20, "unit": "%"}, {"measurement": "Daily responder (%), Stool Consistency", "setting": "[4]; [6]", "value": 26.7, "unit": "%"}, {"measurement": "Weekly responder (%), Abdominal Pain and Stool Consistency", "setting": "[4]; [6]", "value": 37.8, "unit": "%"}, {"measurement": "Weekly responder (%), Stool Consistency", "setting": "[4]; [6]", "value": 48.9, "unit": "%"}, {"measurement": "Daily responder (%), Abdominal Pain", "setting": "[4]; [6]", "value": 53.3, "unit": "%"}, {"measurement": "Weekly responder (%), Abdominal Pain", "setting": "[4]; [6]", "value": 57.8, "unit": "%"}, {"measurement": "number of days per week with at least one stool having a BSS classification of 6 or 7, vs placebo", "setting": "[4]; 60 mg treatment group, over the 4-week treatment period (FIG. 8)", "value": "Improvements over placebo treatment group"}, {"measurement": "average weekly score of the worst abdominal pain experienced during the past 24 hours, vs placebo", "setting": "[4]; 60 mg treatment group, over the 4-week treatment period (FIG. 9)", "value": "Improvements over placebo treatment group"}, {"measurement": "increase in the number of days per week with no abdominal pain", "setting": "[4]; 20 mg treatment group", "value": 1.16}, {"measurement": "increase in the number of days per week with no abdominal pain", "setting": "[4]; 60 mg treatment group", "value": 1.51}]}]}
